Test results taken from patent US10028958B2, “Methods of treating cancer with a combination of selected MEK1/2 and AXL inhibitors” (Massachusetts Institute of Technology, priority 2014, dated 2018).

Columns and labels:
[1] = test system: AXL pY; test: Short term p-AXL up-regulation (bead-based immunoassay); format: cell-based; conditions: 2 h; MDAMB231
Text: pTyr-RTK measurements used bead-based immunocapture with a pan-pTyr detection antibody (EMD Millipore, Billerica, Mass.). Unless otherwise stated, immunoassays followed manufacturer protocols. Bead-based immunoassays were routinely normalized according to the micro BCA protein assay (Pierce) or cell count (ViCell). ADAM17 (pThr^735) and ADAM10 western blot Abs were from Sigma. Anti-phospho Histone H3 (Ser10) for measuring mitotic index was from EMD Millipore, (Billerica, Mass.). GAPDH (glyceraldehyde-3-phosphate dehydrogenase) and α-actinin were used for Western blotting and purchased from Cell Signaling Technology (Danvers, Mass.). APP Ab was from Abcam (Cambridge, Mass.). Live-cell immunostaining was performed using R&D Systems (Minneapolis, Minn.) Abs. SiRNAs, including non-targeting control siRNA, were packaged as SMARTpool ON-TARGETplus and used with DharmaFECT4 (Thermo Scientific, Tewksbury, Mass.). For ADAM10/17 western blots, lysis was performed with 50 mM tris-HCl (pH 7.5), 10% glycerol, 150 mM NaCl, and 1% NP-40, with complete protease (Roche, Nutley, N.J.) and phosphatase (Boston BioProducts, Ashland, Mass.) inhibitors added immediately before use.

[2] = test system: AXL association with MET and HER2; test: RTK cross-linking and bead-based co-I.P.; format: cell-based; conditions: 2 h; MDAMB231
Protocol: MDA-MB231 cells were plated at 90% confluency on three 10-cm plates for each condition, serum starved for 4 h the following day, and treated with inhibitor in serum-free media for 2 h. Cells were then cross-linked with 1 mM EGS for 30 min at 4° C., lysed. Receptor cross-linking was measured using a modified MET and HER2 Luminex Bioplex assay, as previously described (Meyer, A. S., Miller, M. A., Gertler, F. B., and Lauffenburger, D. A. (2013). The receptor AXL diversifies EGFR signaling and limits the response to EGFR-targeted inhibitors in triple-negative breast cancer cells. Sci Signal 6, ra66).

[3] = test system: p-JNK; test: Short term BB94-elicited downstream phosphosignaling (bead-based immunoassay); format: cell-based; conditions: 2 h
[4] = test system: mitotic index; test: Cell cycle analysis (mitotic index by FACS); format: cell-based
Protocol: Cells were trypsinized, rinsed in 4° C. PBS, fixed in 70% 4° C. ethanol overnight, rinsed, and permeabilized in 0.1% Triton-X-100. Cells were then blocked for 1 h in PBS+3% FBS, incubated with anti-phospho-Histone H3 (pSer^10) for 1 h, rinsed, incubated with Alexa647-conjugated 2° Ab, and again rinsed. Lastly, cells were finally incubated at 37° C. for 1 h with 40 μg/ml propidium iodide and 100 μg/ml RNaseA, and again rinsed. Mitotic index was calculated by interpreting DNA-content histograms as described previously (Watson, J. V., Chambers, S. H. & Smith, P. J. A pragmatic approach to the analysis of DNA histograms with a definable G1 peak. Cytometry 8, 1-8 (1987)) in Matlab (Mathworks, Natick, Mass.) and gating for G2/M phase cells with high p-Histone-H3 staining.

[5] = test system: MDAMB-231; test: Loewe synergy of MEKi/AXLi cell count, with or without BB94; format: cell-based; conditions: 72 h; addition of 10 uM BB94
Protocol: (§1) Drugs were purchased from Selleck Chem (Houston, Tex.) and LC Labs (Woburn, Mass.). Cells were grown as described by manufacturers' guidelines. OVCA-429 were grown in RPMI+10% FBS. To calculate Loewe synergy, a computational model was used (Greco, W. R., et al., Pharmacol Rev., 47(2):331-85 (1995)) and the synergy term a was computationally inferred using Matlab (Mathworks; Natick, Mass.). Statistical significance was determined by leave-one-out jackknife error estimation (Efron, B. and Gong, G., Amer Stat.; 37(1):36-48 (1983)). For both MDAMB-231 and OVCA-429 synergy calculations, the modeling was fit to data from treatment at the MEKi concentrations of 7 μM, 2 μM, 0.7 μM, and 0.02 μM and R428 concentrations of 1.5 μM, 0.75 μM, 0.38 μM, and 0.19 μM. For cell growth assays, 5000 cells were plated per well in a 96-well plate, treated with drugs the following day, and counted at 72 h according to either a rezasurin assay (PrestoBlue; Life Technologies, Grand Island, N.Y.) using manufacturer's guidelines, or by flow cytometry following trypsinization and immediate analysis on an LSR-II (BD Biosciences, San Jose, Calif.).

[6] = test system: OVCA-429 ovarian cancer cells; test: as above; format: cell-based; conditions: 72 h; addition of 10 uM BB94
Protocol: as §1

[7] = test system: sheddase substrates; test: Supernatant accumulation of sheddase substrates (ELISA, bead-based immunoassay); conditions: for supernatant RTK accumulation: multiple cancer types
Protocol: The following inhibitors were used in FIG. 1H, at the following concentrations: metalloproteinase inhibitor BB94 (10 μM; Tocris Bioscience), p38 inhibitor SB203580 (20 μM; Selleck Chem), MEK1/2 inhibitor PD0325901 (10 μM; LC Labs), Met/AXL inhibitor XL-880 (5 μM; Selleck Chem), MEK1/2 inhibitor U0126 (10 μM; Selleck Chem), MEK1/2 inhibitor AZD6244 (10 μM; Selleck Chem), Aurora kinase inhibitor VX-680 (10 μM; Selleck Chem), PI3K inhibitor LY294002 (10 μM; Selleck Chem), JNK1/2 inhibitor JNK-IN-8 (3 μM; courtesy Nathaniel Gray, Harvard Medical School), JNK inhibitor SP600125 (10 μM; LC Labs), EGFR inhibitor gefitinib (1 μM; LC Labs), EGFR inhibitor erlotinib (1 μM; LC Labs), JNK inhibitor TCS-6o (1 μM; Tocris Bioscience), Abl inhibitor imatinib (1 μM; LC Labs), EGFR/HER2 inhibitor lapatinib (1 μM; LC Labs), AXL inhibitor R428 (3 μM; Selleck Chem), Alk5 inhibitor ALX-270-448 (5 μM; Enzo life sciences), AXL/MET inhibitor MP470 (5 μM; Selleck Chem), myosin light chain kinase inhibitor ML7 (1 μM; Sigma), and glycogen synthase kinase 3b inhibitor SB216763 (10 μM; Selleck Chem) Inhibitor concentrations were chosen based roughly on exceeding previously published Ki and IC50 values. The ADAM-10 inhibitor pro-ADAM-10 was from Biozyme, Inc. (St. Joseph, Mo.) and was used at 4 μM.
AXL, MET, TNFR1, and EGF-ligand supernatant measurements were performed using duo-set ELISA kits (R&D Systems, Minneapolis, Minn.). Total RTK measurements for HER2 and HER4 were performed using bead-based immunoassays (EMD Millipore, Billerica, Mass.).
For quantification of supernatant protein levels, cell supernatant was collected at the indicated time-point, spun for 5 min at 300 g, and frozen at −80° C. for future use. Supernatants were routinely normalized to cell count, determined via trypsinization and ViCell (Beckman Coulter, Brea, Calif.), and volumes were kept consistent across treatments.
As shown in FIG. 3A-3B, MDA-MB231 cells were treated with siRNA as described above and were seeded in 96-well plates at equal 90% confluency. Media was changed at 48 h post-transfection, and 24 h later supernatant was collected and cells were analyzed by live-cell immunostaining. For proADAM10 treatment, cells were seeded in 96-well plates at 90% confluency, treated with inhibitor or buffer control the following day, and supernatant was collected 24 h later.

[8] = test system: ovarian carcinoma and malignant melanoma; test: Combination drug treatment cell growth assay, 72 h; format: cell-based
Protocol: Drugs were purchased from Selleck Chem (Houston, Tex.) and LC Labs (Woburn, Mass.). Cells were grown as described by manufacturers' guidelines. […] For cell growth assays, 5000 cells were plated per well in a 96-well plate, treated with drugs the following day, and counted at 72 h according to either a rezasurin assay (PrestoBlue; Life Technologies, Grand Island, N.Y.) using manufacturer's guidelines, or by flow cytometry following trypsinization and immediate analysis on an LSR-II (BD Biosciences, San Jose, Calif.).

[9] = test system: supernatant TIMP-1 and -3; test: Antibody microarray analysis of MDA-MB231 supernatant; format: cell-based; conditions: 24 h; MDAMB231; Ab-microarray
Protocol: MDA-MB231 cells were plated in 10 cm plates at 70% confluency, treated the following day with either DMSO or PD325901, and supernatant was collected 24 hours (h) later. Using L-1000 RayBio (Norcross Ga.) microarrays, supernatant was processed according to manufacturer instructions. Two biological replicate samples were analyzed for the control and MEKi conditions, with one sample undiluted and the other diluted 1:5 in growth media. Each array contains duplicate antibody spots, and so a total of n=4 replicates was used to determine significant changes in supernatant proteins. Only proteins measured more than four standard deviations above background for at least one condition were included in the analysis. Gene set enrichment analysis was performed as previously described using gene ontology (GO) gene sets (Subramanian, A. et al., Gene set enrichment analysis: a knowledge-based approach for interpreting genome-wide expression profiles. Proc Natl Acad Sci USA 102, 15545-15550 (2005)). […] The other top gene-sets were “intrinsic to membrane”, “integral to membrane”, “receptor activity”, and “intrinsic to plasma membrane”. The highest enrichment score in PD325901-treated cells was for “hematopoietin interferon class-D200 domain cytokine receptor binding” comprising 10 non-transmembrane proteins, with a corresponding p-value of 0.003.

[10] = test system: surface AXL; conditions: 24 hours; 10 cell lines; more in lines with AXLi/MEKi synergy
Protocol: Cells were trypsinized, rinsed in 4° C. phospho-buffered saline (PBS)+3% FBS, incubated with 1° Ab (i.e., primary antibody) in PBS+3% FBS for 1 h, rinsed, and fixed overnight in PBS+1% formaldehyde at 4° C. The following day, cells were rinsed, incubated with 2° Ab (i.e., secondary antibody) conjugated to either Alexa647 or Alexa546, rinsed, and analyzed by flow cytometry. Fold-change was determined after subtracting the median fluorescence from control cells stained with the IgG control antibody.

[11] = test system: ADAM17; test: ADAM17 dimerization (s-EGS cross-linking, western blot); format: cell-based; conditions: 3 h; MDA-MB231, MDA-MB157, BT549
Protocol: For each condition, two confluent 15 cm plates of cells were serum-starved for 4 h, treated with inhibitor for 3 h, rinsed with 4° C. PBS, incubated with 0.5 mg/ml sulfo-EGS (Pierce) for 30 min., and lysed in 1% NP40 buffer. Lysates were clarified, precleared with agarose resin, incubated with protein A/G resin (Pierce) and anti-ADAM17 antibody (R&D Systems Duo-set) overnight, washed, and then boiled in denaturing lysis buffer. Methods roughly follow previously described protocols (Miller, M. A., Meyer, A. S., Beste, M. T., Lasisi, Z., Reddy, S., Jeng, K. W., Chen, C. H., Han, J., Isaacson, K., Griffith, L. G. et al. (2013). ADAM-10 and -17 regulate endometriotic cell migration via concerted ligand and receptor shedding feedback on kinase signaling, Proc Natl Acad Sci USA 110, E2074-E2083; Xu, P., Liu, J., Sakaki-Yumoto, M., and Derynck, R. (2012). TACE activation by MAPK-mediated regulation of cell surface dimerization and TIMP3 association, Sci Signal 5, ra34).

[12] = test system: panel of cell lines; test: Proliferation/cytotoxicity cell count by flow cytometry; format: cell-based; conditions: individual drug treatment; rough approximation
Protocol: Proliferation and cytotoxicity were assessed by gently rinsing cells, trypsinizing for 15 min, and immediately counting cells by flow-cytometry. Live/dead staining routinely confirmed the majority (>98%) of counted cells to be alive using this procedure. Synergy was calculated using the model of Bliss independence (Bliss, C. I. The toxicity of poisons applied jointly Annals of applied biology 26, 585-615 (1939)), reported herein as the ratio of [observed combination effect size]/[predicted combination effect size], such that values >1 indicate super-additive drug effect, or synergy, and values <1 indicate antagonism. Drug concentrations for synergy measurements were chosen to roughly approximate the IC30 value averaged across the panel of cell lines for the individual drug treatments, and were 20 μM U0126, 7 μM PD325901, and 200 nM R428.

[13] = test system: MDA-MB231-LM2 cells; test: Orthotopic xenograft model of TNBC: tumor growth, metastasis, immunostaining, plasma receptors; format: in vivo, mice; conditions: primary tumors, 21 days after treatment
Protocol: For orthotopic mammary transplant assays, 6-week-old female NOD/SCID-gamma mice (JAX) were anesthetized by intraperitoneal (i.p.) injection of 125-250 mg/kg body weight of Avertin (reconstituted in PBS), followed by i.p. injection of 100 μL, of 12 μg/mL buprenorphine for analgesia. A small incision was made on the right flank, and 250,000 MDA-MB231-LM2 cells in 25 μL, of HBSS were injected into the right #4 fat pad using a 25-μL Hamilton syringe. Mice received three additional i.p. injections of 100 μL, of 12 μg/mL buprenorphine at 12 h intervals following the surgery. […] Twenty (20) days post-surgery, when tumor size was palpable, mice were ranked by tumor size and semi-randomly divided into four groups of equal distribution in tumor size. […]
MET and AXL levels were quantified by measuring fluorescent staining intensity over a line drawn radially from the tumor edge towards the tumor core. […] Regions with morphology characteristic of stroma or necrosis were generally avoided during quantification. Peak intensities along the line were confirmed by visual inspection as corresponding to cell membranes, and were quantified and indexed according to the distance from the tumor edge.

[14] = test system: LOX-IMVI cells; test: Xenograft mouse model of melanoma; set-up: species or system mice; conditions: in vivo
Protocol: For the xenograft melanoma experiment, 7 week old female athymic nude mice (Taconic) were injected with 1×10^6 LOX-IMVI cells in 1:1 Matrigel:HBSS subcutaneously in each flank (Yang, D., et al. “RasGRP3, a Ras activator, contributes to signaling and the tumorigenic phenotype in human melanoma.” Oncogene 30, no. 45: 4590-4600 (2011)). 7 days post-cell injection, tumors were measured by calipers and mice were ranked by tumor size and semi-randomly divided into 6 groups of equal distribution in tumor size, with 10 mice per group. […]
Tumor volumes was measured two to three times a week, estimated using the spherical tumor volume formula V=4/3πr^3, where r is averaged from 4 caliper measurements performed by two blinded researchers. […] For metastasis quantification, the numbers of metastases were counted in paraffin-embedded, H&E-stained sections, by a blinded researcher. Upon sacrifice, blood was collected via cardiac puncture into a heparinized syringe, immediately centrifuged at 2000×g for 20 min, and plasma fraction was stored at −80° C. for later quantification of receptor levels by ELISA and bead-based immunoassay.

CNC(=O)[C@H](Cc1ccccc1)NC(=O)[C@H](CC(C)C)[C@H](CSc1cccs1)C(=O)NO [BB94]
total AXL pY [1]: increases
AXL association with MET and HER2 [2]: increases
phosphosignaling ([3]; MDAMB231): increases phosphosignaling in an AXL-dependent manner
mitotic index [4]: increases mitotic index
Loewe synergy (interaction term α) of PD325901 and R428 [5]: reduced synergy
Loewe synergy (interaction term α) of trametinib and R428 [6]: reduced synergy
supernatant RTK accumulation ([7]; 24 h): reduced supernatant RTK accumulation

S=C(NCc1ccc2c(c1)OCO2)N1CCN(c2ncnc3c2oc2ccccc23)CC1 [MP470, amuvatinib]
efficacy of combination treatment with MAPK and RTK inhibitors (cell count) [8]: efficacious

O=C(NOC[C@H](O)CO)c1ccc(F)c(F)c1Nc1ccc(I)cc1F [PD325901]
supernatant TIMP-1 and -3 [9]: decreases supernatant TIMP-1 and -3
surface AXL [10]: increase surface AXL
ADAM17 homodimerization [11]: increased ADAM17 dimerization
IC30 value averaged across the panel of cell lines [12]: ~7 µM
AXL and MET ectodomain immunostaining near the tumor edge [13]: up-regulation of AXL, and MET to a lesser degree
supernatant RTK accumulation ([7]; 24 h): reduced supernatant RTK accumulation

Nc1nc(Nc2ccc3c(c2)CC[C@@H](N2CCCC2)CC3)nn1-c1cc2c(nn1)-c1ccccc1CCC2 [R428]
MPi-evoked p-JNK increase on co-treatment ([3]; MDA-MB231, co-treatment with BB94): eliminated
IC30 value averaged across the panel of cell lines [12]: ~0.2 µM
overall survival [14]: no significant effect on overall survival

N#CC(=C(/N)Sc1ccccc1N)/C(C#N)=C(\N)Sc1ccccc1N [U0126]
surface AXL [10]: increase surface AXL
total AXL pY [1]: increases
IC30 value averaged across the panel of cell lines [12]: ~20 µM
supernatant accumulation of sheddase substrates ([7]; 24 h, each dot a different cell line, ELISA): reduces supernatant accumulation of sheddase substrates
supernatant levels of multiple sheddase substrates (AREG, HBEGF, TGFα, TNFR1, AXL, MET, HER2, HER4) ([7]; MDA-MB231 cells): consistently reduce supernatant levels of multiple sheddase substrates

COc1cc2c(Oc3ccc(NC(=O)C4(C(=O)Nc5ccc(F)cc5)CC4)cc3F)ccnc2cc1OCCCN1CCOCC1 [foretinib]
efficacy of combination treatment with MAPK and RTK inhibitors (cell count) [8]: efficacious

CNC(=O)c1cc(Oc2ccc(NC(=O)Nc3ccc(Cl)c(C(F)(F)F)c3)cc2)ccn1 [sorafenib]
efficacy of combination treatment with MAPK and RTK inhibitors (cell count) [8]: effective
